# Laboratory results: patent US10919899B2, “Imidazopyrazine compounds, preparation methods and uses thereof” (DONGGUAN ZHENXING-BEITE MEDICINE TECHNOLOGY CO., LTD., priority 2017, dated 2021)
# Entries after “also recorded” stand apart in the source; their conditions may differ.
# Key:
# [1] = Pharmacokinetic (PK) assay in rats; format: in vivo, rat; details: 20 mg/kg oral; for AUC(0-t): read-out: AUC0-24
# Experimental: A male SD rat with 250-300 g of weight was fasted overnight before the assay. The compound to be tested was dissolved in 30% sulfobutyl ether-β-cyclodextrin (SBE-β-CD) and intragastrically administrated to the rat by 20 mg/kg of dosages. Take blood at 15th minute, 30th minute, and 1st, 2nd, 3rd, 4th, 6th, 8th, and 24th hours after the administratation, and about 0.3 mL of blood was taken at each time point. The blood samples were placed into centrifuge tubes containing K2-EDTA (dipotassium ethylene diamine tetraacetate) and plasma was taken via centrifugal treatment (2,000 g, 10 minutes, 4° C.) and stored in a −80° C. of ultra low temperature refrigerator. 50 μL of plasma sample was mixed with 50 μL of internal standard (IS) and extracted with ethyl acetate. After vacuum dried, the residue was re-dissolved in acetonitrile The sample was filtered and injected into LC-MS/MS to be analyzed.
# [2] = target: Txk (h) (Homo sapiens (Human), UniProt P42681); assay: Txk activity inhibition assay (radioactive protein kinase method, Eurofins); format: biochemical; details: for IC50: Km ATP, radiometric
# Sequence of Txk (h) (P42681 whole entry): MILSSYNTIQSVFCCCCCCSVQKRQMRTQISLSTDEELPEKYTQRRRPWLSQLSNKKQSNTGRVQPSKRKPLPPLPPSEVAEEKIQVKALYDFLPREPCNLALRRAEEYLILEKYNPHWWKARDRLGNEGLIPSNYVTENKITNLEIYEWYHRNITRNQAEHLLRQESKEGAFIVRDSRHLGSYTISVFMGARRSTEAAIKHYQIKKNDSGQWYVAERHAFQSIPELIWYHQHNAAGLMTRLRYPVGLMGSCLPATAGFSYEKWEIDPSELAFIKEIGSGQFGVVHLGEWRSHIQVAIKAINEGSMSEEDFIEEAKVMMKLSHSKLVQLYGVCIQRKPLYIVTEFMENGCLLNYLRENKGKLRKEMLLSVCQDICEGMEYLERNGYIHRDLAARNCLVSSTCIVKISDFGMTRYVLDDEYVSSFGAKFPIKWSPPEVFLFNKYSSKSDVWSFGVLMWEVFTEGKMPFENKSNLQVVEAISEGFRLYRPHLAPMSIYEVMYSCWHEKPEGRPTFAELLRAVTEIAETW
# Experimental: (§1) The inhibitory activities of the compound to Tec, Txk, and ITK of human were performed by Eurofins Pharma Discovery Services UK Limited (UK) of the United Kingdom. In the case of Km ATP, the radioactive protein kinase method was adopted by the test. The kinase was diluted with buffer solution (20 mM MOPS, 1 mM EDTA, 0.01% Brij-35, 5% Glycerol, 0.1% […], 1 mg/mL BSA) before the reaction. The compound was dissolved in 100% DMSO and was of 50-fold final reaction concentration.
# TxK reaction solution contained 8 mM MOPS pH 7.0, 0.2 mM EDTA, 250 μM […], 10 mM magnesium acetate, and [γ-^33P]-ATP (about 500 cpm/pmol), 200 μM ATP-Mg was added, after mixing, the reaction was started, the incubation was performed for 40 minutes at room temperature, and 3% phosphoric acid solution was added to terminate the reaction, 10 μl (reaction solution) was placed on P30 filtration membrane, washed with 75 mM phosphoric acid for 5 minutes, and dried with methanol for one time, and then scintillation counting was performed.
# [3] = tested on: Diffuse large B cell lymphoma cell strain TMD-8; assay: Tumor cell proliferation inhibition assay (CellTiter-Glo), TMD-8; format: cell-based; details: Homo sapiens, TMD8; 72 hours, 10% fetal calf serum; read-out: TMD-8 anti-proliferative IC50 level
# Experimental: (§2) Cell viability was evaluated by measuring a content of triphosadenine (ATP) by using CellTiter-Glo luminescent cell viability assay kit method (Promega, # G7572, Madison, Wis.). Diffuse large B cell lymphoma cell strain TMD-8 and HCC827 NSCL cell strains are purchased from Shanghai Fudan IBS Cell Center and American Type Culture Collection (ATCC). After the cells were digested from a cell culture dish by pancreatin and re-suspended by DPBS culture medium, a Scepter automatic cell counter (Millipore, # PHCC00000) was used for counting to measure a cell density. The cells were diluted to be a solution containing 44,000 cells per milliliter. The cell solution with the adjusted density was added into a cell assay plate with 90 μl per well. The well plate was placed to an incubator with 5% CO2 at 37° C. to be incubated for 24 hours and then added with the compound to be tested with different concentrations. The cells and the compound were together incubated for 72 hours in the presence of 10% fetal calf serum. The content of ATP was measured by using CellTiter-Glo® Luminescent Cell Viability Assay kit (referring to manufacturer's instruction) to evaluate the inhibition to the cell growth. Briefly speaking, each well was added with 30 μl of CellTiter-Glo® reagent, the plate was shaken for 10 minutes to induce the cells to be lysed, and fluorescence signal was detected and recorded by fluorescencelchemiluminescence analyzer Fluoroskan Ascent FL (Thermo Scientific Fluoroskan Ascent FL). The maximal signal value was obtained from cells processed by dimethyl sulfoxide (DMSO) for 72 or 120 hours. The minimal signal value obtained from separate culture medium (wherein the number of cells was zero) was defined as 0. Inhibition ratio %=(maximal signal value-compound signal value)/(maximal signal value−minimal signal value)×100%. The data was processed by using GraphPad Prism V5.0 (GraphPad Software San Diego, Calif.) software. IC50 value was fitted and calculated via S-shaped dose-response curve.
# [4] = tested on: HCC827 NSCLC cell; assay: Tumor cell proliferation inhibition assay (CellTiter-Glo), HCC827; format: cell-based; details: Homo sapiens, 72 hours, 10% fetal calf serum, read-out: HCC827 anti-proliferative IC50 level
# Experimental: as §2
# [5] = tested on: TMD-8 lymphoma cell strain transplanted tumor; assay: Tumor model pharmacodynamic assay, TMD-8 transplanted tumor; format: in vivo, mice; details: for T/C (relative tumor volume increased ratio): 18 days
# Experimental: The dose-effect relationship of inhibition of the compound to tumor growth in a diffuse large B cell lymphoma cell strain TMD-8 transplanted tumor model was studied in the present assay. When volume of TMD-8 tumor reached around 200 mm^3, the animals were divided into four oral administration groups, i.e. vehicle control group and 50 mg/kg, 100 mg/kg, and 200 mg/kg of compound 1 oral administration groups (n=8/
# roup). […]
# The tumor volume was measured, and the relative tumor volume (RTV) and the relative tumor volume increased ratio were calculated. RTV=Vt/V0, wherein Vt is the average value of the tumor volume at t^th day after the grouping and administrating, and V0 is the average value of the tumor volume at the grouping day. T/C=treatment group RTV/control group RTVx100%.
# [6] = target: Tec (h) activated (Homo sapiens (Human), UniProt P42680); assay: Tec activity inhibition assay (radioactive protein kinase method, Eurofins); format: biochemical
# Sequence of Tec (h) activated (P42680 whole entry): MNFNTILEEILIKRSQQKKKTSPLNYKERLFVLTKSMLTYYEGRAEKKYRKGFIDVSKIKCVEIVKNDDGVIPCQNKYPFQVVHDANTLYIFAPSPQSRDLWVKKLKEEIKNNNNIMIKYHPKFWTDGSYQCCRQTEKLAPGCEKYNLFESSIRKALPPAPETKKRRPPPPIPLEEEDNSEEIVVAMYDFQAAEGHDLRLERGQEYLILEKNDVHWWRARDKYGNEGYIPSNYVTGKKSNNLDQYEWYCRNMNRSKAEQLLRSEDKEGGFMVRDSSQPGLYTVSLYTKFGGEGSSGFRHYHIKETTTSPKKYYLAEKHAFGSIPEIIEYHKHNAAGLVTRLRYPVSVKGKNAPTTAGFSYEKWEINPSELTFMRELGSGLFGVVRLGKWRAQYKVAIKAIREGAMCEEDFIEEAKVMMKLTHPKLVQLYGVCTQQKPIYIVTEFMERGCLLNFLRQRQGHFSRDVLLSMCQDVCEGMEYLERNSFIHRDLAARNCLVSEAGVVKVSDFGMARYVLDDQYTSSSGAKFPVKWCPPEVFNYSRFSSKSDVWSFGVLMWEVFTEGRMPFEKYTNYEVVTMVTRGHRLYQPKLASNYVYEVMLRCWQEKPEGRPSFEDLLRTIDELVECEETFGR
# Experimental: as §1
# 10 μl (reaction solution) was placed on P30 filtration membrane, washed with 75 mM phosphoric acid for 5 minutes, and dried with methanol for one time, and then scintillation counting was performed.
# [7] = target: Itk (h) (Homo sapiens (Human), UniProt Q08881); assay: ITK activity inhibition assay (radioactive protein kinase method, Eurofins); format: biochemical
# Sequence of Itk (h) (Q08881 whole entry): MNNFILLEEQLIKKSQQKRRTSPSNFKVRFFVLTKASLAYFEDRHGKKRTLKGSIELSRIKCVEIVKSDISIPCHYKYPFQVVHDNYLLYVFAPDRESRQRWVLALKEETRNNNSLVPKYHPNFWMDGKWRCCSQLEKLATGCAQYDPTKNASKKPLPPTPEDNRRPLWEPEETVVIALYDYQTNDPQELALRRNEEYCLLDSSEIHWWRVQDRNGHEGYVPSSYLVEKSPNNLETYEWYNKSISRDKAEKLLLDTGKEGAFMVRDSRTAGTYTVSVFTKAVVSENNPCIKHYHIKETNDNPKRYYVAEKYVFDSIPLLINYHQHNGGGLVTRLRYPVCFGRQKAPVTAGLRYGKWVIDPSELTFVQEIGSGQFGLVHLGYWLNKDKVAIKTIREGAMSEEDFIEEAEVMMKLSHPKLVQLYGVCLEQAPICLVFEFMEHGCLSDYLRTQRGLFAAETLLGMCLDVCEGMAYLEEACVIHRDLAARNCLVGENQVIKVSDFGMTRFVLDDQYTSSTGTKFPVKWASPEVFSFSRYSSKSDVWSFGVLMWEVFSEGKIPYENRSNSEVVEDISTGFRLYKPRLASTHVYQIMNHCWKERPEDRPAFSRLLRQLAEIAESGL
# Experimental: as §1
# ITK reaction solution included 8 mM MOPS pH 7.0, 0.2 mM EDTA, 0.33 mg/mL myelin basic protein, 10 mM magnesium acetate, and [γ-^33P]-ATP (about 500 cpm/pmol), 200 μM ATP-Mg was added, after mixing, the reaction was started, the incubation was performed for 40 minutes at room temperature, and 3% phosphoric acid solution was added to terminate the reaction. 10 μl (reaction solution) was placed on P30 filtration membrane, washed with 75 mM phosphoric acid for 5 minutes, and dried with methanol for one time, and then scintillation counting was performed.
# [8] = target: EGFR T790M/L858R (Homo sapiens, UniProt P00533, L858R/T790M); assay: EGFR activity inhibition assay (Caliper mobility shift); format: biochemical
# Sequence of EGFR T790M/L858R (P00533 25-1210 T790M/L858R limits assumed): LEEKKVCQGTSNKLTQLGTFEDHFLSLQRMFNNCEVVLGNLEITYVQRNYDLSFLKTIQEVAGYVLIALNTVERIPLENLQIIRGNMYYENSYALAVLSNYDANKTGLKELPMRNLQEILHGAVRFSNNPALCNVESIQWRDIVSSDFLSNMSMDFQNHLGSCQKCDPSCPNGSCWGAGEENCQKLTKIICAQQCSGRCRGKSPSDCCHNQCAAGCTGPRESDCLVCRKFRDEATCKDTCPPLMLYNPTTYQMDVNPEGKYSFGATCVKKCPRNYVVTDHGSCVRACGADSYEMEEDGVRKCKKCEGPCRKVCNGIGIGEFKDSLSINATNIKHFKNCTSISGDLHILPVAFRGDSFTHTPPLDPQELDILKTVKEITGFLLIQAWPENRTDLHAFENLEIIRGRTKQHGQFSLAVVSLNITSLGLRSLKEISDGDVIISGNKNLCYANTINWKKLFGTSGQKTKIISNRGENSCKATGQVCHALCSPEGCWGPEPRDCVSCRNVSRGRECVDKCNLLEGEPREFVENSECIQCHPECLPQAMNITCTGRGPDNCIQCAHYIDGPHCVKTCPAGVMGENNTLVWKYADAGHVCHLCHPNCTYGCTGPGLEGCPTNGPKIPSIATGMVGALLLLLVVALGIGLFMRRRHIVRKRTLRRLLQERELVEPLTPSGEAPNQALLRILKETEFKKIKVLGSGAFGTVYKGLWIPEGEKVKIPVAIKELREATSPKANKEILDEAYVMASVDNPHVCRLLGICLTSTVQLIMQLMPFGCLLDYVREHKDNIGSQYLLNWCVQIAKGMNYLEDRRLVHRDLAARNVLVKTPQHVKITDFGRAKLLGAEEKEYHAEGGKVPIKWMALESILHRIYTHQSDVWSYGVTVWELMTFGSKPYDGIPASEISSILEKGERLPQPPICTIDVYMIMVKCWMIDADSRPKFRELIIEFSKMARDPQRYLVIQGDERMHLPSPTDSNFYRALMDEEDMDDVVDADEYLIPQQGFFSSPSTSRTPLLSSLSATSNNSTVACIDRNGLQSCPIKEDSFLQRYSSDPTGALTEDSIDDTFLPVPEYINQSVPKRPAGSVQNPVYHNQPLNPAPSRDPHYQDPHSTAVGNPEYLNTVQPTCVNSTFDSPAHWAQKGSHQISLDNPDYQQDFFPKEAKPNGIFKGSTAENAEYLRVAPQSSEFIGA
# From the text: The conversion ratio data was read on Caliper EZ Reader II (Caliper Life Sciences).
# [9] = target: BTK (Homo sapiens (Human), UniProt Q06187); assay: BTK kinase activity inhibition assay (Caliper mobility shift); format: biochemical; details: ATP 90 μM, read-out: BTK IC50 level
# Sequence of BTK (Q06187 whole entry): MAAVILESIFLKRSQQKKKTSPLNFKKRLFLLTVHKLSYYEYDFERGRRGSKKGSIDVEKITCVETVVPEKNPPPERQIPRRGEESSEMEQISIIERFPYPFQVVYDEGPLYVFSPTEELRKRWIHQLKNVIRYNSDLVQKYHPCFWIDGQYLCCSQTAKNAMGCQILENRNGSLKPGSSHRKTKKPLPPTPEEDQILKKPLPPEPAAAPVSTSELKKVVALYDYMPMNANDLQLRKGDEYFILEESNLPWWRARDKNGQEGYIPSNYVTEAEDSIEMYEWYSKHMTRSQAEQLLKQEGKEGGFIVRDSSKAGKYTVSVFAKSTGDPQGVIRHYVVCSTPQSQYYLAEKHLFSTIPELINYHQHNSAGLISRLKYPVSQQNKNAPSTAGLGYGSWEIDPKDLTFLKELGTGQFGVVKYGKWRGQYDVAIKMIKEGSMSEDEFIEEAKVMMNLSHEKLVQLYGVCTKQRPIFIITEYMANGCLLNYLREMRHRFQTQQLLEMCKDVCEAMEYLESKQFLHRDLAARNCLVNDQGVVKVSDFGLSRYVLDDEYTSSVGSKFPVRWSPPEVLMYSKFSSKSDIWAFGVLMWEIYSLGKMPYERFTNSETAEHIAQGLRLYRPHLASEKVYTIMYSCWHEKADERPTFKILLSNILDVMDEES
# Experimental: Activity of BTK protein kinase was tested by Caliper mobility shift assay (referring to J Biomol Screen 14:31, 2009). The compound of the present disclosure was dissolved in DMSO and then diluted 10-fold with kinase buffer solution (50 mM HEPES-pH 7.5, 0.0015% Brij-35, 10 mM MgCl2, 2 mM DTT). […] 10 μl of a substrate solution of a substrate FAM-labeled SRCtide peptide (Biochem, Cat. No. 112394) and ATP (90 μM) with 2.5-fold final reaction concentration was further added to start the reaction. Then incubation was performed for 10 minutes at room temperature. After incubation for 1 hour 28° C., 25 μl of stopping solution (100 mM HEPES, pH 7.5, 0.015% Brij-35, 0.2% Coating Reagent #3, 50 mM EDTA) was added to terminate the reaction. The conversion ratio data was read on Caliper EZ Reader II (Caliper Life Sciences). The inhibition ratio was calculated and the calculation formula is: inhibition ratio %=(max-conversion)/(max-min)×100 %.
structure (smiles),measurement,setting,value
"CC#CC(=O)N1CCC[C@H]1c1nc(-c2ccc(C(=O)Nc3ccccn3)cc2)c2c(N)nccn12 [ACP-196, Acalabrutinib, reference compound]",t1/2,[1]; male SD rat,7.9 h
same,AUC(0-inf),"[1]; plasma, male SD rat",1400 ng·h/mL
same,Cmax,"[1]; plasma, male SD rat",668 ng/mL
same,half-life,"[1]; plasma, male SD rat",7.9 h
same,AUC(0-t),"[1]; plasma, male SD rat",1300 ng·h/mL
same,IC50,[2],5000 nM
same,IC50,[3],≤ 100 nM
same,IC50,[4],> 10000 nM
"CC#CC(=O)N1CCC[C@H]1c1nc(-c2ccc(OCc3ccccc3)cc2)c2c(N)nccn12 [Compound 1, (S)-1-(2-(8-amino-1-(4-(benzyloxy)phenyl)imidazo[1,5-a]pyrazin-3-yl)pyrrolidin-1-yl)but-2-yn-1-one]",t1/2,[1]; male SD rat,4.2 h
same,AUC(0-inf),"[1]; plasma, male SD rat",3490 ng·h/mL
same,Cmax,"[1]; plasma, male SD rat",1540 ng/mL
same,Tmax,"[1]; plasma, male SD rat",0.5 h
same,half-life,"[1]; plasma, male SD rat",4.2 h
same,AUC(0-t),"[1]; plasma, male SD rat",3480 ng·h/mL
same,AUC relative to ACP-196,[1]; rat,more than double
same,Cmax relative to ACP-196,[1]; rat,more than double
same,half-life compared to ACP-196 (in words),[1]; rat,shorter half-life
same,plasma exposure amount compared to ACP-196 (in words),[1]; rat,higher plasma exposure amount
same,T/C (relative tumor volume increased ratio),[5]; 50 mg/kg oral once a day,71%
same,T/C (relative tumor volume increased ratio),[5]; 100 mg/kg oral once a day,7%
same,T/C (relative tumor volume increased ratio),[5]; 200 mg/kg oral once a day,−91%
same,weight of the animal compared to before the administration,"[5]; each administration group, 50, 100, 200 mg/kg oral",increased
same,inhibition of growth of TMD-8 transplanted tumor (in words),"[5]; oral administration, 50-200 mg/kg",inhibit the growth of TMD-8 transplanted tumor dose-dependently; also recorded: dosage-dependently inhibit the growth
same,inhibitory activity to Tec (in words),[6],very low
same,IC50,"[6]; Km ATP, radiometric",218 nM
same,inhibitory activity to Txk (in words),[2],very low
same,IC50,[2],4540 nM
same,IC50,[3],≤ 100 nM
same,inhibitory activity to ITK (in words),[7],very low
same,IC50,"[7]; Km ATP, radiometric",> 10000 nM
same,IC50,[4],> 10000 nM
same,inhibitory effect on EGFR (in words),[8],does not inhibit
same,IC50,[8]; Km ATP,> 10000 nM
same,IC50,[9],≤ 100 nM
"CC#CC(=O)N1CCC[C@H]1c1nc(-c2ccc(OCc3ccc(C(F)(F)F)cc3)cc2)c2c(N)nccn12 [Compound 2, (S)-1-(2-(8-amino-1-(4-((4-(trifluoromethyl)benzyl)oxy)phenyl)imidazo[1,5-a]pyrazin-3-yl)pyrrolidin-1-yl)but-2-yn-1-one]",IC50,[3],100 to 500 nM
same,IC50,[4],1000 to 10000 nM
same,IC50,[9],> 750 nM
"CC#CC(=O)N1CCC[C@H]1c1nc(-c2ccc(OCc3ccc(F)cc3)cc2)c2c(N)nccn12 [Compound 3, (S)-1-(2-(8-amino-1-(4-((4-fluorobenzyl)oxy)phenyl)imidazo[1,5-a]pyrazin-3-yl)pyrrolidin-1-yl)but-2-yn-1-one]",IC50,[3],100 to 500 nM
same,IC50,[4],> 10000 nM
same,IC50,[9],> 750 nM
"CC#CC(=O)N1CCC[C@H]1c1nc(-c2ccc(OCc3ccccn3)cc2)c2c(N)nccn12 [Compound 5, (S)-1-(2-(8-amino-1-(4-(pyridin-2-ylmethoxy)phenyl)imidazo[1,5-a]pyrazin-3-yl)pyrrolidin-1-yl)but-2-yn-1-one]",IC50,[9],300 to 750 nM
"CC#CC(=O)N1CCC[C@H]1c1nc(-c2ccc(OCc3cc(F)ccn3)cc2)c2c(N)nccn12 [Compound 6, (S)-1-(2-(8-amino-1-(4-((4-fluoropyridin-2-yl)methoxy)phenyl)imidazo[1,5-a]pyrazin-3-yl)pyrrolidin-1-yl)but-2-yn-1-one]",IC50,[3],100 to 500 nM
same,IC50,[4],> 10000 nM
same,IC50,[9],> 750 nM
"CC#CC(=O)N1CCC[C@H]1c1nc(-c2ccc(OCc3ccccc3)nc2)c2c(N)nccn12 [Compound 9, (S)-1-(2-(8-amino-1-(6-(benzyloxy)pyridin-3-yl)imidazo[1,5-a]pyrazin-3-yl)pyrrolidin-1-yl)but-2-yn-1-one]",IC50,[9],> 750 nM
"CC#CC(=O)N1CCC[C@H]1c1nc(-c2ccc(OCCc3ccccc3)cc2)c2c(N)nccn12 [Compound 17, (S)-1-(2-(8-amino-1-(4-phenethoxyphenyl)imidazo[1,5-a]pyrazin-3-yl)pyrrolidin-1-yl)but-2-yn-1-one]",IC50,[9],300 to 750 nM
"C=CC(=O)N1CCC[C@H]1c1nc(-c2ccc(OCc3ccccc3)cc2)c2c(N)nccn12 [Compound 21, (S)-1-(2-(8-amino-1-(4-(benzyloxy)phenyl)imidazo[1,5-a]pyrazin-3-yl)pyrrolidin-1-yl)prop-2-en-1-one]",IC50,[3],≤ 100 nM
same,IC50,[4],> 10000 nM
same,IC50,[9],≤ 100 nM
"C=CC(=O)N1CCC[C@H]1c1nc(-c2ccc(OCc3ccccc3)nc2)c2c(N)nccn12 [Compound 25, (S)-1-(2-(8-amino-1-(6-(benzyloxy)pyridin-3-yl)imidazo[1,5-a]pyrazin-3-yl)pyrrolidin-1-yl)prop-2-en-1-one]",IC50,[3],≤ 100 nM
same,IC50,[4],> 10000 nM
same,IC50,[9],≤ 100 nM
"C=CC(=O)N1CCC[C@H]1c1nc(-c2ccc(OCc3ccccn3)cc2)c2c(N)nccn12 [Compound 29, (S)-1-(2-(8-amino-1-(4-(pyridin-2-ylmethoxy)phenyl)imidazo[1,5-a]pyrazin-3-yl)pyrrolidin-1-yl)prop-2-en-1-one]",IC50,[3],≤ 100 nM
same,IC50,[4],1000 to 10000 nM
same,IC50,[9],100 to 300 nM
